From ChEMBL document CHEMBL1681642, “Synthesis and biological activity of novel MIF antagonists” (Bioorg Med Chem Lett, 2011)

Tests used:
[1] = target: T1, Macrophage migration inhibitory factor (Homo sapiens) (UniProt P14174); test: Inhibition of human purified MIF tautomerase activity at 100 uM after 30 mins
T1 sequence (whole entry): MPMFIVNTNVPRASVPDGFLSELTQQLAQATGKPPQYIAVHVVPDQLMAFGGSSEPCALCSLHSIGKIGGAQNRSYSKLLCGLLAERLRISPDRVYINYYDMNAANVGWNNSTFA

PBMC [2] = test: Antiinflammatory activity in human PBMC assessed as inhibition of MIF-induced TNFalpha production at 100 uM after 21 hrs by ELISA; format: functional
PBMC [3] = test: Antiinflammatory activity in human PBMC assessed as inhibition of MIF-induced IL1-beta production at 100 uM after 21 hrs by ELISA; format: functional
PBMC [4] = test: Antiinflammatory activity in human PBMC assessed as inhibition of MIF-induced IL-6 production at 100 uM after 21 hrs by ELISA; format: functional
[5] = target: T1, Macrophage migration inhibitory factor (Homo sapiens); test: Inhibition of MIF in human PBMC assessed as MIF secretion at 100 uM after 5 hrs by ELISA
[6] = Cytotoxicity against human PBMC assessed as cell viability measured during cytokines production assay at 100 uM after 21 hrs by MTS assay; format: cell-based; details: PBMC (peripheral blood mononuclear cells)
[7] = Cytotoxicity against human PBMC assessed as cell viability measured during MIF secretion assay at 100 uM after 21 hrs by MTS assay; format: cell-based; details: PBMC (peripheral blood mononuclear cells)
[8] = target: T1, Macrophage migration inhibitory factor (Homo sapiens); test: Inhibition of human purified MIF tautomerase activity at 10 uM after 30 mins
PBMC [9] = test: Antiinflammatory activity in human PBMC assessed as inhibition of MIF-induced IL-6 production at 30 uM after 21 hrs by ELISA; format: functional
[10] = target: T1, Macrophage migration inhibitory factor (Homo sapiens); test: Inhibition of MIF in human PBMC assessed as MIF secretion at 10 uM after 5 hrs by ELISA

| SMILES | inhibition [1] [%] | inhibition [5] [%] | inhibition [8] [%] | inhibition [10] [%] | inhibition at 100 µM (PBMC [2]) [%] | inhibition at 100 µM (PBMC [3]) [%] | inhibition at 100 µM (PBMC [4]) [%] | cytotoxicity at 21 h, 100 µM [6] [%] | cytotoxicity at 21 h, 100 µM [7] [%] | inhibition at 30 µM (PBMC [9]) [%] |
| --- | --- | --- | --- | --- | --- | --- | --- | --- | --- | --- |
| COC(=O)C1(C)CC(c2ccoc2)=NO1 (stereo not given) | 22 | 0 | 22 | 0 | 30 | 39 | 11 | 1 | 4 | 0 |
| O=C1CCCN1C1CC(c2cn(-c3cccc(C(F)(F)F)c3)c3ccccc23)=NO1 (stereo not given) | 10 | 0 | 1 | 0 | 68 | 68 | 52 | 16 | 15 | 25 |
| FC(F)(F)c1cccc(-n2cc(C3=NOC(C4CCCCC4)C3)c3ccccc32)c1 (stereo not given) | 100 | 22 | 28 | 1 | 27 | 43 | 19 | 7 | 15 | 4 |
| FC(F)(F)c1cccc(-n2cc(C3=NOC(Cn4ccc5ccccc54)C3)c3ccccc32)c1 (stereo not given) | 100 | 8 | 18 | 0 | 30 | 44 | 17 | 16 | 0 | 15 |
| COC(=O)CC1(C(=O)OC)CC(c2ccoc2)=NO1 (stereo not given) | 47 | 0 | 23 | 0 | 4 | 57 | 60 | 8 | 7 | 53 |
| COC(=O)CC1CC(c2ccc(O)cc2)=NO1 (stereo not given) | 59 | 87 | 8 | 35 | 35 | 34 | 12 | 10 | 8 | 11 |
| COC(=O)C1(C)CC(c2cn(-c3cccc(C(F)(F)F)c3)c3ccccc23)=NO1 (stereo not given) | 66 | 0 | 13 | 4 | 81 | 89 | 65 | 2 | 5 | 25 |
| OCCC1CC(c2cn(-c3cccc(C(F)(F)F)c3)c3ccccc23)=NO1 (stereo not given) | 91 | 0 | 0 | 0 | 88 | 88 | 84 | 9 | 0 | 60 |
| O=C1c2ccccc2C(=O)N1C1CC(c2cn(-c3cccc(C(F)(F)F)c3)c3ccccc23)=NO1 (stereo not given) | 47 | 0 | 8 | 0 | 63 | 43 | 24 | 11 | 0 | 6 |
| CC1(C(=O)O)CC(c2cn(-c3cccc(C(F)(F)F)c3)c3ccccc23)=NO1 (stereo not given) | 17 | 14 | 2 | 41 | 39 | 54 | 45 | 14 | 2 | 18 |
| FC(F)(F)c1cccc(-n2cc(C3=NOC(CN4CCOCC4)C3)c3ccccc32)c1 (stereo not given) | 100 | 0 | 10 | 0 | 42 | 51 | 36 | 10 | 65 | 22 |
| COC(=O)CC1(C(=O)OC)CC(c2cn(-c3cccc(C(F)(F)F)c3)c3ccccc23)=NO1 (stereo not given) | 76 | 10 | 6 | 0 | 0 | 23 | 4 | 2 | 0 | 0 |

Second part, led by results:

| inhibition [1] [%] | inhibition [5] [%] | inhibition [8] [%] | inhibition [10] [%] | SMILES | inhibition at 100 µM (PBMC [2]) [%] | inhibition at 100 µM (PBMC [3]) [%] | inhibition at 100 µM (PBMC [4]) [%] | cytotoxicity at 21 h, 100 µM [6] [%] | cytotoxicity at 21 h, 100 µM [7] [%] | inhibition at 30 µM (PBMC [9]) [%] |
| --- | --- | --- | --- | --- | --- | --- | --- | --- | --- | --- |
| 18 | 36 | 0 | 0 | O=C1CCCN1C1CC(c2ccoc2)=NO1 (stereo not given) | 28 | 22 | 49 | 5 | 0 | 43 |
| 56 | 78 | 20 | 44 | c1cc(C2=NOC(CN3CCOCC3)C2)co1 (stereo not given) | 0 | 32 | 49 | 6 | 0 | 39 |
| 54 | 35 | 23 | 13 | c1cc(C2=NOC(C3CCCCC3)C2)co1 (stereo not given) | 0 | 15 | 0 | 1 | 6 | 0 |
| 30 | 86 | 13 | 40 | CC(C)(C)C(=O)OC1CC(c2ccoc2)=NO1 (stereo not given) | 0 | 6 | 1 | 8 | 0 | 3 |
| 100 | 95 | 26 | 68 | c1ccc2c(c1)ccn2CC1CC(c2ccoc2)=NO1 (stereo not given) | 30 | 19 | 6 | 6 | 0 | 0 |
| 51 | 5 | 4 | 20 | FC(F)(F)c1ccc(C2CC(c3cn(-c4cccc(C(F)(F)F)c4)c4ccccc34)=NO2)cc1 (stereo not given) | 2 | 15 | 6 | 6 | 0 | 3 |
| 72 | 82 | 10 | 38 | COc1ccc(C2CC(c3ccoc3)=NO2)cc1 (stereo not given) | 2.5 | 13 | 0 | 12 | 0 | 0 |
| 41 | 60 | 15 | 31 | FC(F)(F)c1ccc(C2CC(c3ccoc3)=NO2)cc1 (stereo not given) | 76 | 67 | 50 | 17 | 9 | 23 |
| 71 | 2 | 6 | 11 | FC(F)(F)c1cccc(-n2cc(C3=NOC(c4ccccc4)C3)c3ccccc32)c1 (stereo not given) | 0 | 12 | 9 | 8 | 0 | 18 |
| 97 | 1 | 55 | 0 | COc1ccc(C2CC(c3cn(-c4cccc(C(F)(F)F)c4)c4ccccc34)=NO2)cc1 (stereo not given) | 23 | 37 | 13 | 3 | 0 | 5 |
| 0 | 83 | 0 | 49 | O=C1c2ccccc2C(=O)N1C1CC(c2ccoc2)=NO1 (stereo not given) | 26 | 12 | 13 | 12 | 0 | 9 |
| 41 | 51 | 0 | 0 | Fc1ccc(C2CC(c3ccoc3)=NO2)cc1 (stereo not given) | 0 | 47 | 15 | 4 | 0 | 0 |
| 100 | 0 | 55 | 0 | Fc1ccc(C2CC(c3cn(-c4cccc(C(F)(F)F)c4)c4ccccc34)=NO2)cc1 (stereo not given) | 0 | 0 | 4 | 1 | 0 | 0 |
